Measured values from US20240124496A1, “BORONIC ACID COMPOUND AND METHOD FOR PRODUCING SAME” (OSAKA UNIVERSITY, priority 2021, published 2024).

Legend:
[1] = target: T1, amino acid transporter (LAT1) (Homo sapiens, UniProt Q01650); experiment: ^211At-AAMT intracellular uptake in MIA PaCa-2 cells; type: cell-based; conditions: 30 minutes; for inhibition of ^211At-AAMT intracellular uptake: excess amount (1 mM) added, ^211At-AAMT synthesized by the method of the present invention
T1 construct: endogenous in cells; host or cells: MIA PaCa-2 (human pancreatic cancer cells)
Method: Human pancreatic cancer cells MIA PaCa-2 were seeded in a 24-well culture plate at a concentration of 1×10^5 cells/mL. After 2 days, the medium was removed, the cells were washed with PBS (−), and the medium was replaced with HEPES Buffer (amino acid free). To each well, the ^211At-AAMT synthesized by the method of the present invention or the conventional mercury method was added. In addition, an excess amount (1 mM) of BCH (LAT1 inhibitor) or unlabeled (AMT) was added. After culturing the cells for 30 minutes, the cells were washed with PBS (−), and lysed with 0.1 N NaOH, and the radioactivity of the lysate was measured. The ^211At-AAMT intracellular uptake (radioactivity count/protein amount) was calculated by correcting the radioactivity per protein amount. The results are shown in FIG. 6 (FIG. 6a: the method of the present invention, FIG. 6b: the conventional mercury method). In FIG. 6, CTL is control, BCH is 2-aminobicyclo[2,2,1]heptane-2-carboxylic acid, and AMT is α-methyltyrosine.

stability after labeling = type: physicochemical; conditions: crude product solution with ascorbic acid added
Method: 3-(4,4,5,5-Tetramethyl-1,3,2-dioxaboran-2-yl)-α-methyl-L-tyrosine hydrochloride (Bpin-AMT) was dissolved in water to prepare a 1 w/v % aqueous solution. This aqueous solution (0.1 mL) was put in a microtube, and then aqueous [^131I]sodium iodide solution (0.03 mL, 1 MBq, Institute of Isotopes Co., Ltd.) and 0.4 w/v% aqueous N-bromosuccinimide (NBS) solution (0.03 mL) were added thereto, and the mixture was reacted at room temperature for 30 min. Then, to the reaction solution was added 3 w/v% aqueous ascorbic acid solution (0.03 mL) to stop the reaction to give a crude product solution of 3-iodo(^131I)-α-methyl-L-tyrosine (^131I-IAMT).
This crude product solution (1 μL) was analyzed by thin-layer chromatograph method (TLC). The sample was spotted on a thin-layer plate (silica gel G60), and a mixed solvent of acetonitrile/water (2/1) was used as a developing solvent. The thin-layer plate was exposed to an imaging plate for about 15 min, and then analyzed by a bioimage analyzer (Typhoon FLT7000, GE Healthcare, Chicago). 3-Iodo(^131I)-α-methyl-L-tyrosine was detected at Rf 0.72, and the radiochemical yield (RCY) was 86.1%. This compound was stable up to 7 days after labeling.

[2] = produced by the mercury method; Non-Patent Document 1; cited from earlier work
HEK293 cells = experiment: cell viability after addition of ^211At-AAMT; type: cell-based; conditions: 0.00-5.00 kBq per well, 24 hours, FIG. 7
Method: HEK293 cells were seeded in a 24-well culture plate at a concentration of 1×10^5 cells/mL. After 2 days, the medium was removed, the cells were washed with PBS (−), and the medium was replaced with HEPES Buffer (amino acid free). To each well, 0.00-5.00 kBq of the ^211At-AAMT synthesized by the method of the present invention or the conventional mercury method was added. After culturing the cells for 24 hours, the cell viability was examined. […] Industrial Applicability

T1 sequence (Q01650 whole entry): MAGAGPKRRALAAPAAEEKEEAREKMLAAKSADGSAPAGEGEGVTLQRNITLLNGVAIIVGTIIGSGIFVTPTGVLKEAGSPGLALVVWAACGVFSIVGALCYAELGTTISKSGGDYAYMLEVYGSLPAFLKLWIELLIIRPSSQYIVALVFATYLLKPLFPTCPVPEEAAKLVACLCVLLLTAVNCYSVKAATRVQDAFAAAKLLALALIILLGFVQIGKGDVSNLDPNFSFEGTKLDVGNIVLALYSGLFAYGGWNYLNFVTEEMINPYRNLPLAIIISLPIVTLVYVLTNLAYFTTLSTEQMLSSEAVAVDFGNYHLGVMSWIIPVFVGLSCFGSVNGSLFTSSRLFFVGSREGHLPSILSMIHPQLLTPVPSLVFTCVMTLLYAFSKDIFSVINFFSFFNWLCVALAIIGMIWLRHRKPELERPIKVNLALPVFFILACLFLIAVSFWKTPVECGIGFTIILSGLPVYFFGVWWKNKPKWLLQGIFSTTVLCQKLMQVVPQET
T1 sequence (P08195 102-630 partner): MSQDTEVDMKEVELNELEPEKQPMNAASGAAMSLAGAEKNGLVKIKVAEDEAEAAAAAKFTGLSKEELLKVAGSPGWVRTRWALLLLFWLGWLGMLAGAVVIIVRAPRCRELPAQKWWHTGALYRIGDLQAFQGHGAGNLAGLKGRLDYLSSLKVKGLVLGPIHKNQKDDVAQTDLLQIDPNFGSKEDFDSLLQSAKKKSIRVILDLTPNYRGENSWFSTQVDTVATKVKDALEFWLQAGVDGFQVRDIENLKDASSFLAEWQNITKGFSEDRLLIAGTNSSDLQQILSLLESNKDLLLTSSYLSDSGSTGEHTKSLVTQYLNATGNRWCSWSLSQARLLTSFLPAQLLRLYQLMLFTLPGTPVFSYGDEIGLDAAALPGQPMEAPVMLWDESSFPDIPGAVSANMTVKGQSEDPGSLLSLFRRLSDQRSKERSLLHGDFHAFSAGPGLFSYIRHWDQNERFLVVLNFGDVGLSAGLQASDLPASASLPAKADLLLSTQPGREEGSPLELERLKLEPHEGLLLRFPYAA

NC1(C(=O)O)CC2CCC1C2 (centres unmarked) [BCH, 2-aminobicyclo[2,2,1]heptane-2-carboxylic acid, reference compound]
inhibition of ^211At-AAMT intracellular uptake [1]: significantly inhibited

C[C@](N)(Cc1ccc(O)cc1)C(=O)O [AMT, α-methyltyrosine, reference compound]
inhibition of ^211At-AAMT intracellular uptake [1]: significantly inhibited

C[C@](N)(Cc1ccc(O)c([131I])c1)C(=O)O [3-Iodo(^131I)-α-methyl-L-tyrosine, 3-iodo(^131I)-α-methyl-L-tyrosine]
time stable after labeling (stability after labeling): up to 7 days

C[C@](N)(Cc1ccc(O)c([211At])c1)C(=O)O [^211At-AAMT, 3-astato (^211At)-α-methyl-L-tyrosine]
stability of the produced ^211At-AAMT [2]: unstable | ^211At-AAMT intracellular uptake and its inhibition by BCH and AMT, compared with the method of the present invention ([1]; synthesized by the conventional mercury method, FIG. 6b): consistent | ^211At-AAMT intracellular uptake (radioactivity count/protein amount) ([1]; synthesized by the method of the present invention, control (CTL), FIG. 6a): strongly taken up | cell viability, compared with the method of the present invention (HEK293 cells; synthesized by the conventional mercury method): consistent | cell viability (HEK293 cells; synthesized by the method of the present invention): decreased in a dose-dependent manner
